Where two headings read alike, the source gives them in different places.
What was measured:
Format in all cases: cell-based
porcine vaginal mucosa = test: Preliminary histology score, porcine tissue (PMM)
Description: (§1) Active compositions are compared against a commercial control (UT20 58-164-4), a non-irritative control (PBS, phosphate buffered saline), a mild irritant control (1% TX-100, Triton X-100 surfactant).
(§2) The histology reflects a combination of the limits of each tissue models in addition to the reaction to variously added agents. SDS is clearly toxic to the tissue models and the addition of TX100 to the porcine vaginal mucosa removed the ability to assess unambiguously the effect of LPS with a surface active agent such as TX100.

porcine nasal tissue = test: Histology scoring on porcine nasal mucosa
Protocol: A panel of controls for preliminary model development was assessed for biocompatibility properties on Porcine nasal tissue via MTT, and ELISA Assays.
In Table 16, histology scoring of NS A (166A) and NS B (166B) type compositions on porcine nasal mucosa. Sample 165B is a commercial control. It is of some interest that the treatments appear to result in a reduced response with or without the addition of LPS. The detergents SDS and TX100 produce a maximal response while the LPS produces a range of responses. […] The blinded participation of the Histology expert lends additional strength to the data.

tissue explants = test: MTT biocompatibility assay, relative viability of tissue explants
Protocol: Biocompatibility assays were performed by PerfectUs Biomed group (formerly Extherid) on the samples of IC-2B2 samples from Example 2, Table 2B.2
MTT assays returns relative viability of tissue through calorimetric analysis. Results are reported as percent viability compared to the non-irritative PBS control, which represents 100% viability for each of the four test conditions.
Because 100% viability for each trial is represented by the colorimetric average of the 3 explants treated with PBS. viability greater than 100% indicates UT20 formulations impart cytoprotective effects compared to the neutral PBS control.

[1] = tested on: human bladder tissue explants; test: Preliminary histology score, ex-vivo human bladder tissue (HBT)
Description: as §1, §2

Compound	PMM Qualitative Score (histology) (porcine vaginal mucosa)	Ordinal score (histology) (porcine nasal tissue)	tissue viability (MTT), irritant controls (tissue explants)	HBT Qualitative Score (histology) [1]	histology observation, porcine vaginal mucosa (porcine vaginal mucosa; LPS combined with TX100)	Ordinal score (histology) (porcine nasal tissue; control agent alone)	tissue viability (MTT), irritant controls (tissue explants; all test conditions)	histology observation, bladder sections [1]	histology observation, bladder sections ([1]; with addition of LPS)
CCCCCCCCCCCCOS(=O)(=O)[O-].[Na+] [SDS]	4+	4	decreases in tissue viability	4+	–	–	–	–	–
Triton X-100 [TX100]	–	–	–	–	lost normal structure entirely	3	decreases in tissue viability	mild cell loss and submucosal edema	–
lipopolysaccharide [LPS]	–	–	–	–	–	1	–	–	reactive damage to the bladder sections with a loss of cells on the surface of the section

— patent US20220280679A1, “Prophylactic Gel Compositions and Use as Barriers to Bacterial and Viral Colonization” (Innovation Chemical and Enviromental Technologies, Inc., priority 2021, published 2022)
